Source: patent US20200352905A1, “6-(2,4-DICHLOROPHENYL)-5-[4-[(3S)-1-(3-FLUOROPROPYL)PYRROLIDIN-3-YL]OXYPHENYL]-8,9-DIHYDRO-7H-BENZO[7]ANNULENE-2-CARBOXYLIC ACID FOR USE IN METASTATIC OR ADVANCED BREAST CANCER PATIENTS” (SANOFI, priority 2019, published 2020)
Entries after “also recorded” stand apart in the source; their conditions may differ.

Columns and labels:
[1] = Pilot food effect on PK (moderate fat breakfast, Day 3 Cycle 1, Part A); format: in vivo, human
Method: Pilot food effect: A pilot food effect is assessed by PK sampling after drug administration with a moderate fat breakfast on Day 3 of Cycle 1 in all patients treated in Part A. All other dosing in Part A is taken in fasted condition. If results from the QD dosing regimen allow conclusions to be drawn, this will not be implemented for other dosing regimens (eg, BID) that are explored.
For the QD regimen, during Cycle 1, one dose is taken on Day 1 in fasting condition, no dose on Day 2 and repeated administration starts from Day 3. On Day 3 only, the dose is taken in fed condition for a food effect evaluation, and then all subsequent administrations are taken in fasted condition, and at approximately the same time each day (±3 hours). From the conclusions drawn with the initial QD dose regimen, patients treated with other dose regimens are allowed to take Compound (1) in fasted or fed condition. For the BID regimen, the 600 mg dose is split in two drug administrations: 300 mg taken two times a day 12 hours apart (i.e. 2×300 mg)±1 hour with or without food (with one dose only taken in the morning on Day 1, no dose on Day 2 and then repeated BID dosing from Day 3).
The food effect is assessed by comparing AUC0-24 and Cmax between Day 1/Cycle 1 and Day 3/Cycle 1 in Part A.

[2] = tested on: ER-positive and HER2-negative advanced breast cancer; test: TED14856 Part A: antitumor activity per RECIST v1.1 (BOR, ORR, CBR)
Excerpt: The signal extinction between baseline and on study treatment ^18FES-PET scans constitute the PD readout of the ER engagement.
Patients with an early progression as per RECIST v1.1 or who died from disease progression are evaluable for response.
Preliminary efficacy is descriptively presented on activity/efficacy population.

## O=C(O)c1ccc2c(c1)CCCC(c1ccc(Cl)cc1Cl)=C2c1ccc(O[C@H]2CCN(CCCF)C2)cc1 [compound (1), 6-(2,4-dichlorophenyl)-5-[4-[(3S)-1-(3-fluoropropyl)pyrrolidin-3-yl]oxyphenyl]-8,9-dihydro-7H-benzo[7]annulene-2-carboxylic acid]
[1]; female, human, plasma, oral, overall across doses, read-out: delay of median tmax with food
  Tmax: ~1 h
[1]; overall across doses
  increase of exposure with food: about 45%
[1]; regardless of dose level
  food effect on exposure: did not result in a major effect on exposure; also recorded: minimal
[2]; 20 mg, N=3
  Clinical Benefit Rate: 0 n
  Complete Response (CR): 0 n
  Objective Response Rate: 0 n
  Partial Response (PR): 0 n
[2]; 150 mg, N=3
  Complete Response (CR): 0 n
[2]; 200 mg, N=4
  Complete Response (CR): 0 n
  Objective Response Rate: 0 n
  Partial Response (PR): 0 n
[2]; 400 mg, N=3
  Complete Response (CR): 0 n
  Objective Response Rate: 0 n
  Partial Response (PR): 0 n
[2]; 600 mg, N=3
  Complete Response (CR): 0 n
  Objective Response Rate: 0 n
  Partial Response (PR): 0 n
[2]; All, N=16
  Complete Response (CR): 0 n
[2]; N=16
  patients with tumor shrinkage greater than 10%: 9 patients
[2]; patients with ESR1 mutations (5/11)
  Clinical Benefit Rate (CBR): 45.5%
[2]; patients with wild-type ESR1 (3/5)
  Clinical Benefit Rate (CBR): 60.0%
